Laboratory results as given in article PMC13379085 (PLOS Neglected Tropical Diseases, 2026).
pIC50: −log10 of the molar value.

Key:
[1] = test system: Intracellular L. mexicana amastigotes; test: microbe, parasite or virus in culture; format: cell-based, Leishmania mexicana; details: bone marrow derived macrophages, Giemsa staining, 72-hour incubation
Procedure: Bone marrow derived macrophages (BMDMs) were isolated from BALB/c mice and cultured as previously described. […] Completely differentiated BMDMs are obtained after 7 days of culture with media change every 2 days. Harvested cells are seeded onto 10 mm glass cover slips at 5 x 10^5 cells/ well of a 24 well plate in DMEM media (without LCM) and allowed to adhere overnight. BMDM cells are then infected overnight with LV82 L. donovani or L. mexicana (NR-51210) at a multiplicity of infection of 10. After infection, cells were washed three times with fresh media to remove extracellular promastigotes and treated with compounds for a 72-hour incubation. BMDM cells were then washed with phosphate buffered saline, fixed with ice-cold methanol, and stained with Giemsa (5% v/v in water). The cover slips with stained cells are mounted onto glass slides and imaged on EVOS XL (100X, Thermo Fisher Scientific). Leishmania amastigotes per 100 macrophages were determined in a blinded manner.

[2] = test system: LV82 L. donovani; test: Giemsa staining of intracellular L. donovani in BMDMs from wildtype C57BL/6 or lysozyme knockout mice; format: cell-based, Leishmania donovani; details: 72-hour incubation
Description: B6.129P2-Lyz2^tm1(cre)Ifo/J mice (stock #004781, herein termed ‘Lys K/O’) were obtained from Jackson Laboratory. This strain has a nuclear-localized Cre recombinase inserted into the first coding ATG of the lysozyme 2 gene (Lyz2) which eliminates endogenous Lyz2 gene function. Wildtype C57BL6/J mice (stock #000664) were obtained as a control.
Bone marrow derived macrophages (BMDMs) were isolated from both mice and cultured as described above in “Image-based Evaluation of Intracellular Anti-Leishmanial Activity”. BMDMs were seeded onto glass cover slips, infected with LV82 L. donovani at a multiplicity of infection of 1:10. Cells were washed to remove extracellular promastigotes and treated with compounds (197, amphotericin B) for a 72-hour incubation. BMDM cells were then washed with phosphate buffered saline, fixed with ice-cold methanol, and stained with Giemsa (5% v/v in water). The cover slips with stained cells are mounted onto glass slides and imaged on EVOS XL (100X, Thermo Fisher Scientific). Leishmania amastigotes per 100 macrophages were determined in a blinded manner.

[3] = target: T1, lysozyme (Homo sapiens, UniProt P61626); test: Affinity capture proteomics with 197-bead in Leishmania infected macrophage lysate; format: binding; set-up: endogenous in cells; host or cells: PMA-differentiated THP-1 macrophages infected with L. mexicana (lysate); details: 197-bead vs control bead
T1 sequence (P61626 19-148): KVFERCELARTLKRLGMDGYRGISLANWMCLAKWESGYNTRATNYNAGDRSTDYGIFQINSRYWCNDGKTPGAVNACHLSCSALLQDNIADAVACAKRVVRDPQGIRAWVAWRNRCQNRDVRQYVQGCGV
Procedure: To generate cell lysate, ten million THP-1 cells were plated overnight in a 10 cm dish, then differentiated with 150 nM phorbol 12-myristate 13-acetate (PMA) for 72 hours. The resulting macrophages were infected with L. mexicana promastigotes at a multiplicity of infection of 1:10 and incubated for 18 hours. After infection, cells were washed three times with PBS to remove extracellular promastigotes. Cells were then collected by scraping and pelleted with centrifugation. The cell pellet was resuspended in cell buffer (50mM Tris-HCl, 150mM NaCl, 2mM EDTA, 0.5% triton-x-100) and subjected to five freeze-thaw cycles. Samples were centrifuged 14,000g x 10 minutes to remove cellular debris. Protein concentration of supernatant was determined by BCA assay and cell lysate was stored at -80 ° C until further use.
Functionalized agarose beads were made as follows. NHS activated agarose beads were washed three times to remove acetone and resuspended in PBS to create a slurry. 494 (197 with ligation chemical handle) was prepared in 0.3 mL at 25mM in DMSO and 1.7 mL PBS was added to 1 mL of agarose slurry for a final volume of 3 mL at a concentration of 2.5mM (10% v/v DMSO). […]
The peptide samples were resuspended in 15 μL of 5% ACN/0.1% formic acid and analyzed by LC-MS/MS using an Easy nLC 1200 coupled to a QExactive HF mass spectrometer (Thermo Scientific). […]

Structure (SMILES): O=C(CNCc1cccc(F)c1)Nc1ccc(-n2cc(C(F)(F)F)nc2-c2ccc(-c3ccc(C(F)(F)F)cc3)cc2)cc1 [Compound 197]
- pIC50 ([1]; Leishmania mexicana, Macrophage, 72 h): > 5.70
- pIC50 [1]: 5.77
- anti-leishmanial activity in WT and Lys K/O BMDMs [2]: notably decreased in Lys K/O BMDMs
- affinity capture abundance of lysozyme, Log2 fold change [3]: 6.57
